{
  "source": "patent US20250368686A1",
  "about": "“PEPTIDE DRUGS FOR S[…] D[…] BLOCKING HOMO- AND HETERO-DIMERIZATION OF OPIOID RECEPTORS” (OKINAWA INSTITUTE OF SCIENCE AND TECHNOLOGY SCHOOL …, priority 2022, published 2025)",
  "key": {"MOR [1]": {"system": "MOR", "type": "cell-based, rat", "settings": "D- and K-cells"}, "MOR [2]": {"biological_target": "T1, MOR (Rattus norvegicus, UniProt P33535)", "T1 sequence (P33535 whole entry)": "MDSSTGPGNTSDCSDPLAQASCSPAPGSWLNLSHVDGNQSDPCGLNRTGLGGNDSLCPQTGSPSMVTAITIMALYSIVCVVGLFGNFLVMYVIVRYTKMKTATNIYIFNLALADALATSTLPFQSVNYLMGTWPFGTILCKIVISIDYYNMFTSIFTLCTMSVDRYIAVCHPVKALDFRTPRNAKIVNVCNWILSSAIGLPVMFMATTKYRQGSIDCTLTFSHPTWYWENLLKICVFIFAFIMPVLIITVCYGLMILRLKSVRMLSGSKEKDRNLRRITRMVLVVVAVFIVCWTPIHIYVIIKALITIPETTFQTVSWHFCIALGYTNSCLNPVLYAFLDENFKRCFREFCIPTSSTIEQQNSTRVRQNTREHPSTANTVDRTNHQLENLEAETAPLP", "type": "cell-based", "parameters": "expressed in transfected cells; host or cells: CHO-K1 (A10, A13); T24 (A16); CHO-K1 stably expressing Gqi5 (A19)", "settings": "CHO-K1 cells, addition alone"}, "MOR [3]": {"biological_target": "T1, MOR", "type": "cell-based", "parameters": "fluorescent tag protein (not specified for this assay); expressed in transfected cells; host or cells: CHO-K1 (M cells, MD cells); for Ca2+ mobilisation CHO-K1 stably expressing Gqi5"}, "[4]": {"biological_target": "T2, DOR and MOR (DM) heterodimers (Rattus norvegicus, UniProt P33535)", "T2 construct": "expressed in transfected cells; host or cells: CHO-K1 cells stably co-expressing DOR and MOR", "T2 sequence (P33535 whole entry, one chain of several)": "as the sequence (P33535 whole entry) above", "assay": "DM heterodimerisation, two-colour single-molecule imaging in CHO-K1 cells (colocalisation index, heterodimer lifetime)", "type": "cell-based", "settings": "for DM colocalisation, competition by expressed SNAPf-tagged TM peptides: CHO-K1 cells expressing DOR-mGFP, MOR-Halo and the TM peptide"}, "MOR [5]": {"biological_target": "T1, MOR", "type": "cell-based", "parameters": "expressed in transfected cells; host or cells: CHO-K1 (A10, A13); T24 (A16); CHO-K1 stably expressing Gqi5 (A19)", "settings": "T24 cells, addition alone"}, "MOR [6]": {"biological_target": "T1, MOR", "type": "cell-based", "parameters": "fluorescent tag protein (not specified for this assay); expressed in transfected cells; host or cells: CHO-K1 (M cells, MD cells); for Ca2+ mobilisation CHO-K1 stably expressing Gqi5", "settings": "0.5 μM agonist; for MOR internalisation: 60-min observations"}, "DOR [7]": {"biological_target": "T3, DOR (Rattus norvegicus, UniProt P33533)", "T3 sequence (P33533 whole entry)": "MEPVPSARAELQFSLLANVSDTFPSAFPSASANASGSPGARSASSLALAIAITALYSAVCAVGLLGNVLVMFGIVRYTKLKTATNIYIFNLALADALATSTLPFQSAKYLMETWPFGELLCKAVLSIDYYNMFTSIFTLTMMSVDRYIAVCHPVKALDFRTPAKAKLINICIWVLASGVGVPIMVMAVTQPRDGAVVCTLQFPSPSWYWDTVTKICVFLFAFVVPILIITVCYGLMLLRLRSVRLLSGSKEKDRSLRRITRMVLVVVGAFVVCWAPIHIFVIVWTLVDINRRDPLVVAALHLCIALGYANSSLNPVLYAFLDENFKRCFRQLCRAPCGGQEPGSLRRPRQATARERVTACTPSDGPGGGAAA", "type": "cell-based", "parameters": "fluorescent tag protein (not specified for this assay); expressed in transfected cells; host or cells: CHO-K1 (D cells, MD cells)", "settings": "for DOR internalisation, effect of agonist: 0.5 μM agonist, D cells and MD cells"}, "DOR [8]": {"biological_target": "T3, DOR", "type": "cell-based", "parameters": "expressed in transfected cells; host or cells: CHO-K1 (A11, A14); T24 (A17); CHO-K1 stably expressing Gqi5 (A20)", "settings": "T24 cells, addition alone"}, "DOR [9]": {"biological_target": "T3, DOR", "type": "cell-based", "parameters": "expressed in transfected cells; host or cells: CHO-K1 (A11, A14); T24 (A17); CHO-K1 stably expressing Gqi5 (A20)", "settings": "CHO-K1 cells, addition alone"}, "T24 cells": {"system": "T24 cells", "assay": "LDH cytotoxicity assay in T24 cells", "type": "cell-based, human", "settings": "48-h exposure, 50, 100 and 200 μM", "protocol": "(§1) Cytotoxicity was measured by subtracting LDH content in remaining viable cells from total LDH in untreated controls."}, "hippocampal neurons": {"system": "hippocampal neurons", "assay": "LDH cytotoxicity assay in primary culture of hippocampal neurons", "type": "cell-based", "settings": "hippocampal neurons DIV8, DIV12, DIV14; 48, 96 and 144-hour exposures, 100 μM", "protocol": "as §1\nTreatments of neurons with Trition-100 (1%) and DMSO (10%) for 48 h were used as positive controls."}},
  "note": "Structures can show the parent of a compound that is named as a salt. Where two headings read alike, the source gives them in different places. Where no end group is shown, it is not given here.",
  "data": [
    {"molecule": "C[C@@H](NC(=O)[C@@H](N)Cc1ccc(O)cc1)C(=O)NCC(=O)N(C)[C@@H](Cc1ccccc1)C(=O)NCCO", "note": "[DAMGO, [D-Ala^2, N-Mc-Phet, Gly^5-ol]-enkephalin acetate salt]", "values": [
      {"measurement": "intracellular Ca2+ mobilisation", "setting": "MOR [1]", "value": "not"},
      {"measurement": "Fraction of internalized molecules", "setting": "MOR [2]", "value": "28.1 ± 1.7", "unit": "%"},
      {"measurement": "Residency time of internalized molecules", "setting": "MOR [2]", "value": "11.3 ± 1.9", "unit": "min"},
      {"measurement": "intracellular Ca2+ mobilisation", "setting": "MOR [3]; M-cells", "value": "induced"},
      {"measurement": "intracellular Ca2+ mobilisation", "setting": "MOR [3]; MD-cells, compared with M-cells", "value": "greatly enhanced"},
      {"measurement": "DM heterodimer lifetime, effect of agonist", "setting": "[4]; 0.5 μM agonist, within 5 min after addition", "value": "prolonged"},
      {"measurement": "DM colocalisation index, effect of agonist", "setting": "[4]; 0.5 μM agonist, within 5 min after addition, agonist-bound MOR with DOR", "value": "higher"},
      {"measurement": "Fraction of internalized molecules", "setting": "MOR [5]", "value": "26.3 ± 1.1", "unit": "%"},
      {"measurement": "Residency time of internalized molecules", "setting": "MOR [5]", "value": "6.5 ± 1.2", "unit": "min"},
      {"measurement": "MOR internalisation", "setting": "MOR [6]; M cells", "value": 31.8, "unit": "%"},
      {"measurement": "MOR internalisation", "setting": "MOR [6]; MD cells", "value": 51.1, "unit": "%"},
      {"measurement": "DOR internalisation", "setting": "DOR [7]; MD cells, 0.5 μM MOR agonist, 4.3% without DAMGO addition", "value": 13.3, "unit": "%"}
    ]},
    {"molecule": "C=CCN1C[C@H](C)N([C@H](c2ccc(C(=O)N(CC)CC)cc2)c2cccc(OC)c2)C[C@H]1C", "note": "[SNC-80]", "values": [
      {"measurement": "Fraction of internalized molecules", "setting": "DOR [8]", "value": "56.5 ± 1.9", "unit": "%"},
      {"measurement": "Residency time of internalized molecules", "setting": "DOR [8]", "value": "8.9 ± 1.0", "unit": "min"},
      {"measurement": "Fraction of internalized molecules", "setting": "DOR [9]", "value": "61.6 ± 1.7", "unit": "%"},
      {"measurement": "Residency time of internalized molecules", "setting": "DOR [9]", "value": "10.8 ± 0.9", "unit": "min"},
      {"measurement": "MOR internalisation, effect of agonist", "setting": "MOR [6]; M cells and MD cells", "value": "induced"},
      {"measurement": "DOR internalisation, effect of agonist", "setting": "DOR [7]", "value": "induced dramatic DOR internalisation"}
    ]},
    {"molecule": "CN1CC[C@]23c4c5ccc(O)c4O[C@H]2[C@@H](O)C=C[C@H]3[C@H]1C5", "note": "[morphine]", "values": [
      {"measurement": "DOR internalisation, effect of agonist", "setting": "DOR [7]", "value": "hardly affected"}
    ]},
    {"molecule": "LSHVDGNQSDPCGLNRTGLGGNDSLCPQTG [Mpep(32-61)MD]", "values": [
      {"measurement": "DM colocalisation index", "setting": "[4]; soluble peptides, 10 μM final, added to cells stably co-expressing WT-DOR and MOR", "value": "largest reductions"}
    ]},
    {"molecule": "MOR's N-term+TM1: aa53-99 sequence of MOR conjugated with the SNAPf tag, expressed in cells (NDSLCPQTGSPSMVTAITIMALYSIVCVVGLFGNFLVMYVIVRYTKM; cysteine pairing not given here; also: conjugated with SNAPf tag)", "values": [
      {"measurement": "DM colocalisation, competition by expressed SNAPf-tagged TM peptides", "setting": "[4]", "value": "competes with DM dimers more effectively"}
    ]},
    {"molecule": "MOR's TM1: MOR's TM1 (aa71-94) conjugated with the SNAPf tag, expressed in cells (IMALYSIVCVVGLFGNFLVMYVIV; also: conjugated with SNAPf tag)", "values": [
      {"measurement": "DM colocalisation, competition by expressed SNAPf-tagged TM peptides", "setting": "[4]", "value": "lowered the DM colocalisation"}
    ]},
    {"molecule": "SDTFPSAFPSASANASGSPGARS [Dpep(20-42)DM]", "values": [
      {"measurement": "cytotoxicity (LDH)", "setting": "T24 cells", "value": "no toxicity"},
      {"measurement": "cytotoxicity (LDH)", "setting": "hippocampal neurons", "value": "little toxicity"}
    ]}
  ]
}
